Test results reported in ChEMBL document CHEMBL4385604, “Identification of Pyrrolo[2,3- d]pyrimidine-Based Derivatives as Potent and Orally Effective Fms-like Tyrosine Receptor Kinase 3 (FLT3) Inhibitors for Treating Acute Myelogenous Leukemia” (J Med Chem, 2019).
The source made the active and inactive calls. The rule behind the calls is not given here.

What was measured:
[1] = target: T1, Receptor-type tyrosine-protein kinase FLT3 (Homo sapiens, UniProt P36888)
T1 sequence (P36888 whole entry): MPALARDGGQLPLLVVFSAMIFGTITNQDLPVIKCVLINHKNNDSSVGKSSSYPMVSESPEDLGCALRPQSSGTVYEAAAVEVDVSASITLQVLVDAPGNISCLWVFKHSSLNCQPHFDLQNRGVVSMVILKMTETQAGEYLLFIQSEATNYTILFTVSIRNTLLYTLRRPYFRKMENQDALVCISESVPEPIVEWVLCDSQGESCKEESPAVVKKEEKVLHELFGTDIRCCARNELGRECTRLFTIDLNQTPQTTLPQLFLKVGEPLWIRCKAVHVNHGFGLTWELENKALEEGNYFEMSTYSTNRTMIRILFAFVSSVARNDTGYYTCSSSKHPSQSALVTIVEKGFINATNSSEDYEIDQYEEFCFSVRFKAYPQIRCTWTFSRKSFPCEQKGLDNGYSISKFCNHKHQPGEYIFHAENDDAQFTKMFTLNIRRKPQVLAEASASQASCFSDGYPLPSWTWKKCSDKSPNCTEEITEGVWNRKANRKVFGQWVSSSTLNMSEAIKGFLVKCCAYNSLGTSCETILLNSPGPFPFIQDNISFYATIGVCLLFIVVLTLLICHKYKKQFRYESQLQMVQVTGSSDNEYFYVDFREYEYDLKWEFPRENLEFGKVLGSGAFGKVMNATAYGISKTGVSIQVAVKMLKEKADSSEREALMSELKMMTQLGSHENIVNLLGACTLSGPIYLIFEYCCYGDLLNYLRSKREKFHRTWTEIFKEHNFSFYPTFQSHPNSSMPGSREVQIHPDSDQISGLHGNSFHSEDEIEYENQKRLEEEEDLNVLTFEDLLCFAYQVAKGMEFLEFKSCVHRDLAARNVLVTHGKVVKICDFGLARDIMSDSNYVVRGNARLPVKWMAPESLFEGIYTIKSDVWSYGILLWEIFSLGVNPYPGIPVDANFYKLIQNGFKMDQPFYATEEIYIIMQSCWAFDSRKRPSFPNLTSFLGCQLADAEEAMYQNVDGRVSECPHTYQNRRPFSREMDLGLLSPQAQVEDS

[2] = Tmax in Sprague-Dawley rat at 5 mg/kg, po by LC-MS/MS analysis; type: ADME, organism-based; conditions: in vivo
[3] = Elimination half-life in Sprague-Dawley rat at 5 mg/kg, po by LC-MS/MS analysis; type: ADME, organism-based; conditions: in vivo, read-out: beta t1/2 (converted)
[4] = Plasma clearance in Sprague-Dawley rat at 5 mg/kg, po by LC-MS/MS analysis; type: ADME, organism-based
[5] = Oral bioavailability in Sprague-Dawley rat at 5 mg/kg by LC-MS/MS analysis; type: ADME, organism-based; conditions: in vivo
[6] = tested on: RS4-11; assay: Antiproliferative activity against human RS4:11 cells harboring wild-type FLT3 measured after 72 hrs by MTT assay; type: functional, cell-based; conditions: RS4-11, 72 h
[7] = tested on: HL-60; assay: Antiproliferative activity against human HL60 cells harboring wild-type FLT3 measured after 72 hrs by MTT assay; type: functional, cell-based; conditions: HL-60, 72 h
[8] = tested on: MV4-11; assay: cells; conditions: Homo sapiens, MV4-11, 72 h
Description: Antiproliferative activity against human MV4-11 cells harboring FLT3-ITD mutant measured after 72 hrs by MTT assay

[9] = tested on: MOLM-13; assay: cells; conditions: Homo sapiens, MOLM-13, 72 h
Description: Antiproliferative activity against human MOLM13 cells harboring FLT3-ITD mutant measured after 72 hrs by MTT assay

[10] = tested on: BaF3; assay: cells; conditions: Mus musculus, BaF3, 72 h
Description: Antiproliferative activity against mouse BAF3 cells harboring FLT3-ITD mutant measured after 72 hrs by MTT assay

[11] = tested on: BaF3; assay: cells; conditions: Mus musculus, BaF3, 72 h; remark: listed apart in the source
Description: Antiproliferative activity against mouse BAF3 cells harboring FLT3-ITD-F691L mutant measured after 72 hrs by MTT assay

[12] = tested on: BaF3; assay: cells; conditions: Mus musculus, BaF3, 72 h; remark: listed apart in the source
Description: Antiproliferative activity against mouse BAF3 cells harboring FLT3-ITD-D835V mutant measured after 72 hrs by MTT assay

[13] = tested on: MV4-11; assay: Antitumour activity against human MV4-11 cells xenografted in NOD/SCID mouse assessed as tumour growth inhibition; type: functional, cell-based
[14] = tested on: MOLM-13; assay: Antitumour activity against human MOLM13 cells xenografted in NOD/SCID mouse assessed as tumour growth inhibition; type: functional, cell-based
[15] = tested on: MOLM-13; assay: Potency index, ratio of quizartinib IC50 to test compound IC50 for human MOLM13 cells harboring FLT3-ITD mutant; type: functional

| Compound | IC50 [1] [nM] | Tmax [2] [h] | half-life [3] [h] | CL/F [4] [mL/min/kg] | bioavailability [5] [%] | IC50 [6] [nM] | IC50 [7] [nM] | IC50 [8] [nM] | IC50 [9] [nM] | IC50 [10] [nM] | IC50 [11] [nM] | IC50 [12] [nM] | TGI [13] | TGI [14] | Ratio IC50 [15] |
| --- | --- | --- | --- | --- | --- | --- | --- | --- | --- | --- | --- | --- | --- | --- | --- |
| C#CCn1cc(-c2ccc(NC(=O)Nc3cc(C(C)(C)C)on3)cc2)c2c(N)ncnc21 | 13 | 0.83 | 2.78 | 28.3 | 40 | > 1000 | > 1000 | 0.602 | 0.262 | 1.66 | 13.9 | 21.1 | – | – | – |
| CC(C)(C)c1cc(NC(=O)Nc2ccc(-c3cn(CC#N)c4ncnc(N)c34)cc2)no1 | 9 | 0.44 | 3.7 | 153 | 11.2 | > 1000 | > 1000 | 0.032 | 0.038 | 0.97 | 3.61 | 9.17 | – | – | – |
| CC(C)(C)c1cc(NC(=O)Nc2ccc(-c3c[nH]c4ncnc(N)c34)cc2)no1 | 6 | 0.28 | 6.22 | 14.8 | 22.5 | > 1000 | > 1000 | 0.043 | < 0.001 | 0.16 | 2.35 | 4.83 | inactive | inactive | >100 |
| CCC#CCn1cc(-c2ccc(NC(=O)Nc3cc(C(C)(C)C)on3)cc2)c2c(N)ncnc21 | 64 | – | – | – | – | > 1000 | > 1000 | 5.84 | 2.05 | 8.65 | 148 | 361 | – | – | – |
| CC(C)(C)c1cc(NC(=O)Nc2ccc(-c3cn(CCN4CCNCC4)c4ncnc(N)c34)cc2)no1 | 9 | – | – | – | – | > 1000 | > 1000 | 1.75 | 2.56 | 8.67 | > 200 | 156 | – | – | – |
| CN(C)CCn1cc(-c2ccc(NC(=O)Nc3cc(C(C)(C)C)on3)cc2)c2c(N)ncnc21 | 17 | – | – | – | – | > 1000 | > 1000 | 0.152 | 0.134 | 1.62 | 85 | 170 | – | – | – |
| CC(C)(C)c1cc(NC(=O)Nc2ccc(-c3cn(CCC#N)c4ncnc(N)c34)cc2)no1 | 6 | – | – | – | – | > 1000 | > 1000 | 0.376 | 0.52 | 1.6 | 19.6 | 24.6 | – | – | – |
| CC(C)(C)c1cc(NC(=O)Nc2ccc(-c3cn(CCN4CCOCC4)c4ncnc(N)c34)cc2)no1 | 20 | – | – | – | – | > 1000 | > 1000 | 0.329 | 1.15 | 1.07 | 34.8 | 52.4 | inactive | inactive | – |
| CC(C)(C)c1cc(NC(=O)Nc2ccc(-c3cn(CC#N)c4ncnc(N)c34)cc2F)no1 | 19 | – | – | – | – | > 1000 | > 1000 | 0.422 | 0.73 | 1.27 | 9.84 | 86.7 | – | – | – |
| CC(C)(C)OC(=O)n1cc(-c2ccc(NC(=O)Nc3cc(C(C)(C)C)on3)cc2)c2c(N)ncnc21 | 25 | – | – | – | – | > 1000 | > 1000 | 0.107 | 0.081 | 1.28 | 8.92 | 12.4 | – | – | – |
| CC(C)(C)c1cc(NC(=O)Nc2ccc(-c3cn(CCCCO)c4ncnc(N)c34)cc2)no1 | 16 | 0.31 | 2.77 | 801 | 9.8 | > 1000 | > 1000 | 0.876 | 0.14 | 1.73 | 13.6 | 14.7 | – | – | – |
| CC(C)n1cc(-c2ccc(NC(=O)Nc3cc(C(C)(C)C)on3)cc2)c2c(N)ncnc21 | 20 | 0.5 | 4.22 | 255 | 12.1 | > 1000 | > 1000 | 0.1 | 0.971 | 5.3 | 12.6 | 12.2 | – | – | – |
